GI50 data for eleven compounds are collected here from patent publication US10160755B2 (Plexxikon Inc., priority 2015, dated 2018).

The target in the experiment is T1, BA/F3-FLT3-ITD + F691L cells (Homo sapiens, UniProt P36888, F691L, cells depend on it, form not given).
T1 sequence (P36888 1-993 F691L): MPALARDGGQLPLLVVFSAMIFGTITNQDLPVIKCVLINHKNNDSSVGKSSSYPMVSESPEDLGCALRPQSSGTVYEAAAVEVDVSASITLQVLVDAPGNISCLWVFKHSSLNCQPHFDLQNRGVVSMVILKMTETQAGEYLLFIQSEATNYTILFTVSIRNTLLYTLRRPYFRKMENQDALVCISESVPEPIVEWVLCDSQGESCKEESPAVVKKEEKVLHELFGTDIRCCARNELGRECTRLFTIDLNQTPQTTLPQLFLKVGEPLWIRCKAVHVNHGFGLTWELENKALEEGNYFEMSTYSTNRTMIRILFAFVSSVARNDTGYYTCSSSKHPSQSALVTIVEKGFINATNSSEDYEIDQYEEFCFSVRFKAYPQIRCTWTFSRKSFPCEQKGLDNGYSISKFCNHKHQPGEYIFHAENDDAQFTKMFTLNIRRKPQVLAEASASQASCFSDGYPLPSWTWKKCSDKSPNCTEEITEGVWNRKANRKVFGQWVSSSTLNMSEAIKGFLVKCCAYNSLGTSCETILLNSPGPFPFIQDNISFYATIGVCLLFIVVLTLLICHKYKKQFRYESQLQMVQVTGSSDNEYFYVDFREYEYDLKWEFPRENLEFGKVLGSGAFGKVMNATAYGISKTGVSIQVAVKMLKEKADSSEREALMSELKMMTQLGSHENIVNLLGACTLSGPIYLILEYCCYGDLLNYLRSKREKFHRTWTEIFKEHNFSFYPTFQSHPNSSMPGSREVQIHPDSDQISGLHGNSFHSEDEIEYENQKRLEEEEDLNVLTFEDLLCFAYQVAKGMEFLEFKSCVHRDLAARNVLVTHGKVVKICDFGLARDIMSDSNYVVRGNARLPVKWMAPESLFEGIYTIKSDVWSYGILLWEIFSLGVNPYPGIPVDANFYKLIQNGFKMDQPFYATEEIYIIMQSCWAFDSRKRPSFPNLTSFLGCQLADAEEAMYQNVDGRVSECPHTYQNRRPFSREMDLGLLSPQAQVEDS
The experiment is described as follows: BA/F3-FLT3-ITD + F691L cell proliferation assay (CellTiter-Glo). Type of experiment: cell-based, murine. The conditions noted are these: BaF3 FLT3 ITD/F691L cells; read-out: Cell Activity (IC50 μM) BaF3_FLT3_ITD/F691L. The essentials: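 Three-day growth assay, IC50 from CellTiter-Glo ATP luminescence vs concentration. Compounds at 10 to 0.0046 μM (1:3 steps, final DMSO 0.2%) on 1×10^4 cells/well. Cells are IL-3-independent BA/F3 lines engineered to express full-length FLT3-ITD with the D835Y or the F691L mutation.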
(ATP-based viability assays read luminescence as a measure of living cells.)

Consider `Cc1ncc(C#Cc2cnc3[nH]cc(-c4ccc5ncn(C(C)(C)C)c5c4)c3c2)cn1` [P-383, 1-tert-butyl-6-[5-[2-(2-methylpyrimidin-5-yl)ethynyl]-1H-pyrrolo[2,3-b]pyridin-3-yl]benzimidazole], for which the GI50 was 0.0001 to 1 µM.

For `COc1cnc2[nH]cc(-c3ccc4ncn(C5CCCNC5)c4c3)c2c1` (centres unmarked) [P-079, 5-methoxy-3-[3-(3-piperidyl)benzimidazol-5-yl]-1H-pyrrolo[2,3-b]pyridine], the GI50 fell in the range of 0.0001 to 1 µM.

With `CCN1CCN(c2cccc(-c3cnc4[nH]cc(-c5ccc6ncn(C(C)(C)C)c6c5)c4n3)c2)CC1` [P-330, 7-(3-tert-butylbenzimidazol-5-yl)-2-[3-(4-ethylpiperazin-1-yl)phenyl]-5H-pyrrolo[2,3-b]pyrazine], the GI50 fell in the range of 0.0001 to 1 µM.

As to `c1cc(N2CCOCC2)ncc1-c1cnc2[nH]cc(-c3ccc4ncn(C5CCCNC5)c4c3)c2n1` (centres unmarked) [P-325, 4-[5-[7-[3-(3-piperidyl)benzimidazol-5-yl]-5H-pyrrolo[2,3-b]pyrazin-2-yl]-2-pyridyl]morpholine], the GI50 is 0.0001 to 1 µM.

Regarding `COc1cc(C#Cc2cnc3[nH]cc(-c4ccc5ncn(C(C)(C)C)c5c4)c3n2)ccn1` [P-279, 7-(1-(tert-butyl)-1H-benzo[d]imidazol-6-yl)-2-((2-methoxypyridin-4-yl)ethynyl)-5H-pyrrolo[2,3-b]pyrazine], the GI50 lay within 0.0001 to 1 µM.

`CC(C)(C)n1cnc2ccc(-c3c[nH]c4ncc(-c5ccc(N6CCCCC6)nc5)nc34)cc21` [P-347, 7-(1-(tert-butyl)-1H-benzo[d]imidazol-6-yl)-2-(6-(piperidin-1-yl)pyridin-3-yl)-5H-pyrrolo[2,3-b]pyrazine]: the GI50 is 0.0001 to 1 µM.

Consider `CC(C)(C)n1cnc2ccc(-c3c[nH]c4ncc(-c5cccc(N6CCCS6(=O)=O)c5)cc34)cc21` [P-278, 2-[3-[3-(3-tert-butylbenzimidazol-5-yl)-1H-pyrrolo[2,3-b]pyridin-5-yl]phenyl]-1,2-thiazolidine 1,1-dioxide], for which the GI50 lay in the range of 0.0001 to 1 µM.

As to `CC(C)(C)n1cnc2ccc(-c3c[nH]c4ncc(-c5cnc(C#N)nc5)nc34)cc21` [P-352, 5-[7-(3-tert-butylbenzimidazol-5-yl)-5H-pyrrolo[2,3-b]pyrazin-2-yl]pyrimidine-2-carbonitrile], the GI50 lay within 0.0001 to 1 µM.

Turning to `CC(C)(O)c1ncc(-c2cnc3[nH]cc(-c4ccc5ncn(C(C)(C)C)c5c4)c3n2)cn1` [P-380, 2-[5-[7-(3-tert-butylbenzimidazol-5-yl)-5H-pyrrolo[2,3-b]pyrazin-2-yl]pyrimidin-2-yl]propan-2-ol], the GI50 fell in the range of 0.0001 to 1 µM.

As for `COc1cc(-c2cc3c(-c4ccc5ncn(C(C)(C)C)c5c4)c[nH]c3nn2)ccn1` [P-315, 5-(3-tert-butylbenzimidazol-5-yl)-3-(2-methoxy-4-pyridyl)-7H-pyrrolo[2,3-c]pyridazine], the GI50 is 0.0001 to 1 µM.

`FC(F)(F)Cn1cc(-c2cnc3[nH]cc(-c4ccc5ncn(C6CCCNC6)c5c4)c3c2)cn1` (centres unmarked) [P-275, 1-(3-piperidyl)-6-[5-[1-(2,2,2-trifluoroethyl)pyrazol-4-yl]-1H-pyrrolo[2,3-b]pyridin-3-yl]benzimidazole]: the GI50 was in the range of 0.0001 to 1 µM.
